Laboratory results as given in BigSolDB 2.1.

C[C@@H](Oc1ccc(Oc2nc3ccc(Cl)cc3o2)cc1)C(=O)N(C)c1ccccc1F
solubility (mole fraction)
Conditions | in cyclohexane | in isobutanol | in isopentanol | in isopropanol | in n-butanol | in n-hexane | in n-pentanol | in n-propanol | in sec-butanol
278.15 K | – | 0.00347 | 0.00526 | 0.00231 | 0.00631 | 0.000329 | 0.00739 | 0.00476 | 0.00344
283.15 K | 0.00449 | 0.00487 | 0.00724 | 0.00315 | 0.00822 | 0.000495 | 0.00951 | 0.00646 | 0.00491
288.15 K | 0.00627 | 0.00676 | 0.00977 | 0.00422 | 0.0109 | 0.000594 | 0.0123 | 0.00876 | 0.00683
293.15 K | 0.00814 | 0.00921 | 0.013 | 0.00543 | 0.0139 | 0.000811 | 0.015 | 0.0115 | 0.00919
298.15 K | 0.0115 | 0.0126 | 0.0173 | 0.00714 | 0.0183 | 0.00112 | 0.0187 | 0.0155 | 0.0122
303.15 K | 0.0146 | 0.0169 | 0.0216 | 0.00963 | 0.0237 | 0.00156 | 0.0228 | 0.0209 | 0.016
308.15 K | 0.0208 | – | – | – | – | 0.00196 | – | – | –
313.15 K | 0.0287 | – | – | – | – | 0.00245 | – | – | –
